Test results reported in article PMC9415646, “Improving Aqueous Solubility and In Vitro Pharmacokinetic Properties of the 3-Nitroimidazo[1,2-a]pyridine Antileishmanial Pharmacophore” (Pharmaceuticals, 2022).
“And” between values parts separate entries of the source, which are not always exact repeats. Equal entries are not always repeated.

What was measured:
[1] = tested on: L. donovani promastigotes; assay: Antileishmanial activity against L. donovani promastigotes (MTT assay); type: cell-based; conditions: Leishmania donovani; promastigotes, 72 h, MTT; read-out: EC50 L. donovani Pro.
Description: The Leishmania species used in this study were L. donovani (MHOM/IN/00/DEVI) purchased from CNR Leishmania (Montpellier, France). Leishmania promastigote forms were grown in Schneider’s Drosophila medium (Life Technologies, Saint-Aubin, France) supplemented with 100 U/mL penicillin, 100 µg/mL streptomycin, 2 mM L-glutamine and 20% FCS (Life Technologies, Saint-Aubin, France) at 27 °C. The in vitro evaluation of the tested compound’s antileishmanial activity on promastigote forms was carried out by MTT assay according to the Mosmann protocol with some modifications. Briefly, promastigotes in log-phase were incubated at an average density of 10^6 parasites/mL in sterile 96-well plates with various concentrations of compound dissolved in DMSO (final concentration less than 0.5% v/v), in duplicate. Appropriate controls treated with DMSO, Miltefosine, Amphotericin B, Fexinidazole, and Fexinidazole sulfone (reference drugs purchased from Sigma-Aldrich, Saint-Louis, Missouri, USA) were added to each set of experiments. After a 72 h incubation period at 27 °C, parasitic metabolic activity was determined. Each plate-well was then microscope-analyzed to detect any precipitate formation. 20 µL of MTT (3-(4,5-dimethylthiazol-2-yl)-2,5-diphenyltetrazolium bromide) (Sigma-Aldrich, Saint-Louis, Missouri, USA) solution (5 mg/mL in PBS) were added to each well and incubated for 4 h at 27 °C. The enzyme reaction was then stopped by addition of 100 µL of 50% isopropanol–10% sodium dodecyl sulfate. Plates were shaken vigorously at 300 rpm for 10 min. The absorbance was measured at 570 nm in a BIO-TEK Elx808 (Biotek, Colmar, France) absorbance microplate reader. […] EC50 values were calculated by non-linear regression analysis processed dose-response curves, using TableCurve 2D V5.0 software (Systat Software Inc. (Palo Alto, CA, USA)). EC50 values represent the mean value calculated from at least three separate experiments.

[2] = tested on: L. infantum promastigotes; assay: Antileishmanial activity against L. infantum promastigotes (luciferase assay); type: cell-based; conditions: Leishmania infantum, 72 h, read-out: EC50 L. infantum Pro.
Description: L. infantum promastigotes (MHOM/MA/67/ITMAP-263, CNR Leishmania, Montpellier, France, expressing luciferase activity) were used in the following tests. The effects of the tested compounds on the growth of L. infantum promastigotes were assessed by Luciferase Assay. Briefly, promastigotes in log-phase in RPMI 1640 medium supplemented with 10% fetal calf serum (FCS), 2 mM L-glutamine and antibiotics (100U/mL penicillin, 100 µg/mL streptomycin and 50µg/mL geneticin), were incubated at an average density of 10^6 parasites/mL (100 µL/well) in sterile 96-well plates with various concentrations of compounds dissolved in DMSO (final concentration less than 0.5% v/v), in duplicate. Appropriate controls (100 µL/well) treated by DMSO and reference drugs (purchased for the majority from Sigma Aldrich) were added to each set of experiments. After a 72 h incubation period at 24 °C, each plate-well was then microscope-examined for detecting possible precipitate formation. To estimate the luciferase activities of promastigotes, 80 µL of each well are transferred in white 96-well plates, Steady Glow reagent (Promega) was added according to manufacter’s instructions, and plates were incubated for 2 min. The luminescence was measured in a FLUOstar Omega (BMG Labtech, Champigny-sur-Marne, France). […] EC50 were calculated by non-linear regression analysis processed on dose–response curves, using TableCurve 2D V5 software.

[3] = tested on: L. infantum axenic amastigotes; assay: Antileishmanial activity on L. infantum axenic amastigotes (luciferase assay); type: cell-based; conditions: Leishmania infantum, 48 h, read-out: EC50 L. infantum Axenic Ama.
Description: L. infantum promastigotes were harvested in logarithmic phase of growth by centrifugation at 900× g for 10 min. The supernatant was removed carefully and was replaced by the same volume of RPMI 1640 complete medium at pH 5.4 and incubated for 24 h at 24 °C. The acidified promastigotes were then incubated for 24 h at 37 °C in a ventilated flask to transform them into axenic amastigotes. The amastigote stage was checked both by electron microscopy (short flagellum with small bulbous tip extending beyond a spherical cell body) and RT-PCR to confirm the overexpression of ATG8 and amastin genes in amastigotes, relative to promastigotes. The effects of the tested compounds on the growth of L. infantum axenic amastigotes were assessed as follows. L. infantum amastigotes were incubated at a density of 2 × 10^6 parasites/mL in sterile 96-well plates with various concentrations of compounds dissolved in DMSO (final concentration less than 0.5% v/v), in duplicate. Appropriate controls treated with DMSO, amphotericin B, miltefosine, fexinidazole and fexinidazole sulfone were added to each set of experiments. After a 48 h incubation period at 37 °C, each plate-well was then microscopically examined to detect any precipitate formation.
• Luciferase activity and determination of EC50 were performed as above.

[4] = Cytotoxicity evaluation on HepG2 cell line (MTT); type: cell-based; conditions: human, HepG2 cells
Description: The tested molecules’ cytotoxicity was assessed according to the method of Mosmann with slight modifications. […] Triplicate assays were performed for each sample. Each plate-well was then microscope-examined to detect possible precipitate formation before the medium was aspirated from the wells. 100 µL of MTT (3-(4,5-dimethyl-2-thiazolyl)-2,5-diphenyl-2H-tetrazolium bromide) solution (0.5 mg/mL in medium without FCS) were then added to each well. […] Plates were shaken vigorously (700 rpm) for 10 min. The absorbance was measured at 570 nm with 630 nm as reference wavelength using a BIO-TEK ELx808 Absorbance Microplate Reader. DMSO was used as blank and doxorubicin (purchased from Sigma Aldrich) as positive control. Cell viability was calculated as percentage of control (cells incubated without compound). […] (Palo Alto, CA, USA)). CC50 values represent the mean value calculated from three separate experiments.

[5] = Cytotoxicity on THP-1 cell line (MTT); type: cell-based; conditions: human, THP-1 cells, THP1 cell line
Description: The plates were incubated for 72 h at 37 °C. Each well plate was then microscope-examined for detecting possible precipitate formation before the medium was aspirated from the wells. 100 µL of MTT solution (0.5 mg/mL in medium) were then added to each well. Cells were incubated for 2 h at 37 °C. […] Plates were shaken vigorously (300 rpm) for 10 min. The absorbance was measured at 570 nm using a BIO-TEK ELx808 Absorbance Microplate Reader. DMSO was used as blank and doxorubicin (purchased from Sigma Aldrich) as positive control. Cell viability was calculated as percentage of control (cells incubated with DMSO). […] (Palo Alto, CA, USA). CC50 values represent the mean value calculated from three separate experiments.

[6] = Redox potential of the nitro group by cyclic voltammetry; type: physicochemical; conditions: cyclic voltammetry in DMSO, corrected versus NHE
Description: Voltammetric measurements were carried out with a potentiostat Autolab PGSTAT100 (ECO Chemie, Utrecht, The Netherlands) controlled by GPES 4.09 software (ECO Chemie, Utrecht, The Netherlands). Experiments were performed at room temperature in a homemade airtight three–electrode cell connected to a vacuum/argon line. The reference electrode consisted of a saturated calomel electrode (SCE) separated from the solution by a bridge compartment. The counter electrode was a platinum wire of 1 cm^2 apparent surface. The working electrode was a GC microdisk (1.0 mm in diameter–Bio-logic SAS). The supporting electrolyte (nBu4N)[PF6] (Fluka, 99% puriss electrochemical grade) and the solvent DMSO (Sigma-Aldrich puriss p.a. dried <0.02% water) were used as received and simply degassed under argon. The solutions used during electrochemical analyses were typically 10^−3 M in compound and 0.1 M in supporting electrolyte. Before each measurement, the solutions were degassed by bubbling Ar, and the working electrode was polished with a polishing machine (Presi P230, Eybens, France). Under the experimental conditions adopted in this work, the half-wave potential (E1/2) of the ferrocene Fc+/Fc couple in DMSO was E1/2 = 0.45 V vs. SCE. Experimental peak potentials were measured versus SCE and converted to NHE by adding 0.241 V.

Compound | EC50 [1] | EC50 [2] | EC50 [3] | CC50 at 72 h [4] | CC50 at 72 h [5] | E0 (redox potential of the nitro group) [6] | melting point
O=[N+]([O-])c1c(CS(=O)(=O)C2CC2)nc2c(Br)cc(Cl)cn12 [Compound 2i, 8-Bromo-6-Chloro-2-[(cyclopropylsulfonyl]methyl)-3-Nitroimidazo[1,2-a]pyridine] | > 25 µM | > 50 µM | > 50 µM | > 6.2 µM | > 50 µM | −0.63 V | 250 °C
O=[N+]([O-])c1c(CS(=O)(=O)c2ccc(F)cc2)nc2c(Br)cc(Cl)cn12 [Compound 2e, 8-Bromo-6-Chloro-2-[(4-Fluorophenylsulfonyl)methyl]-3-Nitroimidazo[1,2-a]pyridine] | 2.8 ± 0.5 µM | > 100 µM | 3.3 ± 0.1 µM | > 7.8 µM | 33.3 ± 1.4 µM | −0.64 V | 222 °C
O=[N+]([O-])c1c(C[S+]([O-])c2ccccc2)nc2c(Br)cc(Cl)cn12 (centres unmarked) [Compound 5, 8-Bromo-6-Chloro-3-Nitro-2-[(phenylsulfinyl)methyl]imidazo[1,2-a]pyridine] | – | – | – | – | – | – | 198 °C
O=[N+]([O-])c1c(CS(=O)(=O)CCC(F)(F)F)nc2c(Br)cc(Cl)cn12 [Compound 2j, 8-Bromo-6-Chloro-3-Nitro-2-[(3,3,3-Trifluoropropylsulfonyl)methyl]imidazo[1,2-a]pyridine] | 14.4 ± 1.6 µM | 1.9 ± 0.4 µM | 20.1 ± 5.6 µM | 42.9 ± 12.3 µM | 26 ± 1.2 µM | −0.60 V and −0.6 V | 181 °C
COc1cccc2c1C(=O)c1c(O)c3c(c(O)c1C2=O)C[C@@](O)(C(=O)CO)C[C@@H]3O[C@H]1C[C@H](N)[C@H](O)[C@H](C)O1 [Doxorubicin, reference compound] | – | – | – | 0.2 ± 0.02 µM | 0.8 ± 0.1 µM | – | –
CC(C)S(=O)(=O)Cc1nc2c(Sc3ccc(Cl)cc3)cc(Cl)cn2c1[N+](=O)[O-] [Compound 3g, 6-Chloro-8-[(4-Chlorophenyl)thio]-2-[(isopropylsulfonyl)methyl]-3-Nitroimidazo[1,2-a]pyridine] | 2.2 ± 0.3 µM | 2.4 ± 0.6 µM | 3.2 ± 0.1 µM | 22.2 ± 5.5 µM | > 31.2 µM | −0.63 V | 208 °C
O=[N+]([O-])c1c(CS(=O)(=O)c2ccc(F)cc2)nc2c(Cl)cc(Cl)cn12 [Compound 1c, 6,8-Dichloro-2-[(4-fluorophenylsulfonyl)methyl]-3-nitroimidazo[1,2-a]pyridine] | 5.8 ± 1.9 µM | > 100 µM | > 1.6 µM | > 7.8 µM | 22.5 ± 1.1 µM | −0.60 V and −0.6 V | 224 °C
O=[N+]([O-])c1c(CS(=O)(=O)c2ccc(Cl)cc2)nc2c(Br)cc(Cl)cn12 [Compound 2d, 8-Bromo-6-Chloro-2-[(4-Chlorophenylsulfonyl)methyl]-3-Nitroimidazo[1,2-a]pyridine] | 3 ± 0.4 µM | 3.5 ± 0.4 µM | 2.1 ± 0.3 µM | > 12.5 µM | > 31.2 µM | −0.62 V | 222 °C
O=[N+]([O-])c1c(CS(=O)(=O)c2ccc(C(F)(F)F)cc2)nc2c(Cl)cc(Cl)cn12 [Compound 1d, 6,8-Dichloro-3-Nitro-2-[(4-Trifluoromethylphenylsulfonyl)methyl]imidazo[1,2-a]pyridine] | 4.1 ± 0.4 µM | > 100 µM | 2.2 ± 0.1 µM | > 15.6 µM | 23.2 ± 1.9 µM | −0.60 V and −0.6 V | 196 °C
CC(C)S(=O)(=O)Cc1nc2c(Br)cc(Cl)cn2c1[N+](=O)[O-] [Compound 2h, 8-Bromo-6-Chloro-2-[(isopropylsulfonyl)methyl]-3-Nitroimidazo[1,2-a]pyridine] | > 25 µM | 61.2 ± 3.4 µM | > 50 µM | > 62.5 µM | > 100 µM | −0.65 V | 183 °C
